“Also recorded” adds a separate entry of the source.
Assays:
FEN-1 = FEN-1 (Homo sapiens, UniProt P39748); experiment: FEN-1 nuclease assay with HIV CDF and regular 5′ flap model substrates; format: biochemical
Description: 0.25 or 0.5 pmol of purified recombinant FEN-1 were mixed with 1 pmol of regular 5′ flap substrate with a 3′ flap of single nucleotide or HIV CDF substrate, respectively in the presence of 0, 0.1, 0.2, 0.4, 0.6, 0.8, and 1.0 mM pentamidine isethionate salt. The reaction was carried out at 37° C. for 30 minutes. Substrates and products were analyzed with DNA sequencing PAGE and visualized with radio-autograph (upper panel). The amount of cleavage products and non-cleaved substrates were quantified with ImagineQuant and were shown in the bottom panel.
One pmol of HIV CDF substrate were mixed with 0, 0.01, 0.1, 1, and 3 pmol of purified recombinant FEN-1 in the absence or presence of 0.4 mM pentamidine isethionate salt. The reaction was carried out at 37° C. for 30 minutes. Substrates and products were analyzed with DNA sequencing PAGE and visualized with radio-autograph (upper panel). The amount of cleavage product and non-cleaved substrate were quantified with ImagineQuant and were shown in the bottom panel.
FIG. 12 is a graph line and chart showing kinetic analysis of FEN-1 cleavage of HIV CDF substrates in the absence and presence of pentamidine. 1 pmol of FEN-1 was incubated with 0, 0.125, 0.25, 0.375, 0.5, 1, and 2 pmol of HIV CDF substrates. The reaction were carried out at 37° C. for 10 min. The amount of cleavage product and non-cleaved substrate were quantified with ImagineQuant. The Michaelis-Menten kinetic parameters Km and Kcat (Bottom panel) were calculated with double-reciprocal plots of 1/v versus 1/[s] (Upper panel).
Nuclease assays. DNA model substrates were prepared as previously described (Zheng 2005). FEN-1 nuclease and/or D181A mutant was incubated with 1 pmol of indicated DNA substrates at 30° C. for 15 minutes. DNA substrates and products were separated in DNA sequencing PAGE and visualized with autoradiography.
Finally, the third criteria is in vitro inhibition of HIV-CDF processing. The inhibition of FEN-1 cleavage of HIV-CDF and regular 5′ flap structures by molecules selected after criteria 2 are examined in this test. Only the molecules that inhibit FEN-1 cleavage of HIV-CDF but not the regular 5′ flap structures are qualified for in vivo studies. The inhibition efficacy of HIV replication in H9 and CEM T cell lines by small molecules is determined with the HIV reverse transcriptase inhibitor AZT used as an inhibition control.

HIV IIIB virus = experiment: Antiviral challenge assay, HIV IIIB replication in H9 or CEM cells, p24; format: cell-based, HIV-1; settings: for suppression of HIV replication (p24) / inhibition of HIV replication (p24): HIV IIIB, 7 days; for suppression of HIV replication (p24): 15 μM pentamidine; for inhibition of HIV replication (p24): 10 μM AZT
Description: H9 cells or CEM cells were challenged with HIV IIIB virus in the absence (PC) or presence of 15 μM pentamidine (PTD) or 10 μM AZT. Cells were grown for 7 days and the concentration of p24 were determined and the inhibition percentage were calculated. FIG. 13B: H9 cells or CEM cells were challenged with HIV IIIB virus in the absence or presence of varying concentration of pentamidine (PTD) or AZT. Cells were grown for 7 days and the concentration of p24 were determined.
The next experiment examined whether pentamidine could inhibit HIV replication in vivo. The H9 cells and CEM cells were challenged with HIV IIIB virus in the absence or presence of 15 μM pentamidine or 10 μM AZT, a HIV reverse transcriptase inhibitor.
Antiviral challenge assays using infectious laboratory and other HIV-1 strains: Appropriate cells, screened for viability and growth kinetics, are challenged with HIV-1 strain IIIB, NL4-3, JRFL or primary isolates. This is a modification of a standard method described by Ho (Ho 1991) for virus neutralization. The resultant inoculum is titrated by ID50 in uninfected CEM, H9 or PBMC cultures. 0.01 MOI HIV is inoculated onto 10^6 candidate cells for six hours at 37° C., and then washed three times with PBS. For screening assays, each cell culture supernatant is examined on day seven post infection and examined for reverse transcriptase activity or p24 concentration. For confirmation assays, cultures are followed for day 7, 14, 21 and 28 observations. Cells are fed twice weekly by removing one-half of the media. Viral inhibition is defined >50% reduction in RT activity or p24 compared with control culture, which were mock-treated.

[1] = test system: HIV-1 strain NL4-3 and III B; experiment: HIV-1 replication in CEM T-cells over-expressing FEN-1 or D181A, secreted p24; format: cell-based
Description: In order to test the effects of FEN-1 function on HIV replication in its natural host cells, human T-cells, the CEM cells with the same construct shown in FIG. 4A were transfected under selection of G418. CEM cells (C), CEM cells expressing the c-myc-tagged hFEN-1 (F), or D181A mutant (A) were seeded at 0.5×10^4 cells per well in a 12-well plate. Duplicate plates were prepared for each cell line. The cells were challenged with two HIV-1 strains: NL4-3 and III B. Virus challenge proceeded at both 50 TCID50 and 5 TCID50. The cell culture supernatants were collected and the HIV-1 p24 was measured weekly for four weeks post-infection.
HIV-1 replication in CEM cells. CEM cells, or CEM cells infected with the hFEN-1 or D181A retroviral vector, were seeded at 0.5×10^4 cells per well of a 12-well plate. Duplicate plates were prepared for each cell line. The cells were challenged with HIV-1 strain NL4-3 and III B. Viral challenge was conducted at both 50 TCID50. Cell culture supernatants were collected and the HIV-1 p24 was measured weekly for four weeks post-infection. Syncytium formation due to the HIV-1 infection was monitored, and cells were photographed under a microscope weekly (FIGS. 6-7).

HIV-1 vector HXB2-Hyg = experiment: HIV-1 infection colony assay (hygromycin-resistant colonies) in HeLa CD4+ cells; format: cell-based; settings: compared to control HeLa CD4+ cells
Description: The cells are infected with a modified HIV-1 virus. Upon integration, the infected cells become hygromycin-resistant due to the expression of the drug-resistant gene from the proviral DNA. The integration efficiency is then determined by counting the colonies selected on Hygromycin B. The integration is confirmed by LTR-Tag assay.
A modified HIV-1 virus vector derived from strain HXB2 (HXB2-Hyg) with a newly created Bpm I site near the end of the U5 region in its 5′ LTR is prepared. This virus genome also contains a hygromycin-resistant gene for selecting virus-infected cells. This VSV-G pseudotyped virus is used to infect LaD cells along with LaF and LaP cells with m.o.i. of 1.0. The infected cells are cultured in a medium containing 200 μg/ml of Hygromycin B for 2 weeks. The virus-infected cells with the stable integrated provirus are hygromycin-resistant and grow into colonies. The colonies are stained with 0.2% crystal violet in 10% phosphate-buffered formalin (pH 7.0) and counted.
An LTR-Tag analysis method is used to detect HIV integration. […] For this reason, there are many fewer ^32P-labeled LTR-Tags prepared from the D181A overexpressing LaD cells in comparison to the radioactivity-labeled LTR-Tags prepared from the LaP cells. […]
HIV-1 infection colony assay. […] Hygromycin-resistant colonies were stained with 0.2% crystal violet in 70% ethanol, and the number of colonies was counted.

HIV-1 cDNA integration = experiment: HIV-1 integration assay, Southern blot hybridization of host genomic DNA; format: cell-based; settings: expression in HeLa cells
Description: To further validate that inhibition of FEN-1 nuclease activity reduced HIV-1 cDNA integration, genomic DNA was isolated and the integration of viral cDNA into the host genome was detected by Southern blot hybridization. […] Both of the experiments indicate that the integration of HIV may be impaired under a FEN-1 deficient background.
HIV-1 integration assay. Genomic DNA was isolated from HIV-1 infected cells according to a previous protocol (Chen 1998). 20 μg of DNA was digested with EcoRV and BamHI and resolved on a native agarose gel. A 0.8 kb of HIV-1 specific DNA fragment, released by digestion of HIV cDNA with BamHI and BgIII, was used as a probe in Southern blot hybridization.

[2] = in the presence of 400 μM of pentamidine

FEN-1, sequence (P39748 whole entry): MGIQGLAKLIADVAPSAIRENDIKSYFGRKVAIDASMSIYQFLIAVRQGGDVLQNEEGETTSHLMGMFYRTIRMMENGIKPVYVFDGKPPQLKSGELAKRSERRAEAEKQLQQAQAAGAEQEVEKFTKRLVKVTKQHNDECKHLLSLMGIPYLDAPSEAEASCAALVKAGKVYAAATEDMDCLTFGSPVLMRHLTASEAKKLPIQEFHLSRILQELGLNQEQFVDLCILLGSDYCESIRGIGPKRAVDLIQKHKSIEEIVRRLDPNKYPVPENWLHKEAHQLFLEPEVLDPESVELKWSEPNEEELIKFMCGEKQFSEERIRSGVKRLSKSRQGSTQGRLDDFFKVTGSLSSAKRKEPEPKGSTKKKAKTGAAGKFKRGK

With N=C(N)c1ccc(OCCCCCOc2ccc(C(=N)N)cc2)cc1 [pentamidine] the “effect on FEN-1 cleavage of regular 5′ flap structures resembling RNA-DNA primers” value (FEN-1) was “little effect”, the “effect on kcat and Km of FEN-1 cleavage of HIV CDF substrates” value (FEN-1; Michaelis-Menten, double-reciprocal plots, 37° C., 10 min) was “decrease” and the “cleavage of both HIV CDF and regular 5′ flap substrates” value (FEN-1; concentrations higher than 1 mM) was “completely inhibited”. The “FEN-1's activity cleaving regular 5′ flap substrates retained” value (FEN-1; [2]) was “greater than 80%”, the “FEN-1 cleavage of HIV CDF structures suppressed” value (FEN-1; [2]) was 90% and the “suppression of HIV replication (p24)” value (HIV IIIB virus; CEM cells) was 69.3%. The “suppression of HIV replication (p24)” value (HIV IIIB virus; H9 cells) was 98.8%, the “inhibitory effect on HIV replication compared with AZT” value (HIV IIIB virus; T-cell lines) was “equal to or more effective than AZT; also recorded: equivalent to AZT” and the “inhibitory effect on HIV-1 replication relative to AZT” value (HIV IIIB virus; another T-cell line) was “about 70 % that of AZT”.
With “D181A: dominant negative point mutant of human FEN-1, binds flap DNA but deficient in catalysis and nuclear localization” the “inhibition of wild type FEN-1 flap endonuclease activity in vitro” value (FEN-1; HIV CDF substrate, mutant 8-10 folds higher than wild type protein concentration) was “almost completely inhibit”, the “inhibition of FEN-1 activity with d-flap substrates” value (FEN-1; d-flap substrates, model for host cell RNA primer removal) was “does not inhibit” and the “HIV-1 replication suppressed, secreted HIV p24 protein concentrations” value ([1]; stable T-cell lines over-expressing the mutant) was “more than 99.9%”. The “HIV inhibition, culture supernatant p24” value ([1]; transduced CEM cells, HIVIIIB and HIVNL4-3, weekly for four weeks) was “strong HIV inhibition”, the “decrease of HIV-1 integration, hygromycin-resistant CFUs” value (HIV-1 vector HXB2-Hyg) was “more than 95 % CFUs” and the “HIV-1 cDNA integration into host genome” value (HIV-1 cDNA integration) was “significantly decreased”.
Cc1cn([C@H]2C[C@H](N=[N+]=[N-])[C@@H](CO)O2)c(=O)[nH]c1=O [AZT] was tested, and the “inhibition of HIV replication (p24)” value (HIV IIIB virus; CEM cells) was 98.6% and the “inhibition of HIV replication (p24)” value (HIV IIIB virus; H9 cells) was 100%.

Reference: patent US7927790B2, “Suppression of HIV-1 replication via inhibition of human flap endonuclease-1-mediated HIV-1 central DNA flap processing” (priority 2005, dated 2011)
